Test results published in US20240076609A1, “COMPOSITIONS AND METHODS FOR CULTURING AND EXPANDING CELLS” (LIFE TECHNOLOGIES CORPORATION, priority 2017, published 2024).
Values joined by “and” are separate entries in the source; they are usually repeats but may differ in a detail not shown here. Equal entries are not always repeated. “Also recorded” adds a separate entry of the source.

What was measured:
[1] = tested on: Non-naïve T cells; assay: CD8+/CD4+ phenotype after 10 days with 2-DG in non-naïve T cells; format: cell-based, human; details: 4 mM 2-DG
Description: For some studies, CD8+ and CD4+ T cells were isolated from PBMCs by negative selection using Untouched Human CD8+ and CD4+ T Cells Kits. Naïve and non-naïve T cells were isolated from enriched T cells by positive selection using CD45RA nanobeads (Miltenyi). Phenotype: Primary human T cells were expanded for 10 days with and without 2-DG and 5% human AB serum. DYNABEADS® were removed from 2×10^6 cells by magnetic separation. Surface staining was performed with antibodies against CD3 (Invitrogen, Cat. No. CD0329), CD4 (Molecular Probes, Cat. No. A15858), CD8 (Invitrogen, Cat. No. MHCD0828). Flow cytometric analysis was performed on a Gallios flow cytometer and Kaluza software (Beckman Coulter, Indianapolis IN). For some studies, CD8+ and CD4+ T cells were isolated from PBMCs by negative selection using Untouched Human CD8+ and CD4+ T Cells Kits. Naïve and non-naïve T cells were isolated from enriched T cells by positive selection using CD45RA nanobeads (Miltenyi). Phenotype: Primary human T cells were expanded for 10 days with and without 2-DG and 5% human AB serum. DYNABEADS® were removed from 2×10^6 cells by magnetic separation. Surface staining was performed with antibodies against CD3 (Invitrogen, Cat. No. CD0329), CD4 (Molecular Probes, Cat. No. A15858), CD8 (Invitrogen, Cat. No. MHCD0828). Flow cytometric analysis was performed on a Gallios flow cytometer and Kaluza software (Beckman Coulter, Indianapolis IN).

[2] = tested on: Non-naïve T cells; assay: Expansion of non-naïve T cells with 2-DG; format: cell-based, human; details: 4 mM 2-DG
Description: T cell activation and expansion: T cells (seeding density 1×10^6 vc/mL) were activated with DYNABEADS® Human T-Expander CD3/CD28 (Thermo Fisher Scientific, Cat. No. 11141D) at a ratio of 3 beads per T cell and cultured in serum-free medium, animal origin free medium. T cells were counted on days 5, 7, 10, and 12 on a Vi-CELL XR analyzer (Beckman Coulter, Indianapolis IN) and fed with or without 2-DG (0.25 mM, 0.5 mM, 1 mM, 2 mM, and 4 mM) and 5% human AB serum to a density of 5×10^5 vc/mL on days 3, 5, and 7 and 1×10^6 vc/mL on day 10. For some studies, CD8+ and CD4+ T cells were isolated from PBMCs by negative selection using Untouched Human CD8+ and CD4+ T Cells Kits. Naïve and non-naïve T cells were isolated from enriched T cells by positive selection using CD45RA nanobeads (Miltenyi). […]

[3] = tested on: Primary human T cells; assay: T cell expansion with 2-DG introduced at days 0, 3, 5, 7 or at every feed; format: cell-based
Description: Stimulation of T cells with DYNABEADS® Human T-Expander CD3/CD28 at a ratio of 3 beads per T cell and cultured in serum-free, animal origin free medium and culturing the cells with 2-DG. Followed by feeding the cells with 2-DG at various time points (day 3, day 5, day 7, and every time cells were fed).
Treatment with supplement was started on day 0, 3, 5, 7 and maintained with subsequent feedings. T cells were cultured for 12 days in serum-free T cell medium and in X-VIVO™ 15 medium supplemented with 5% human AB serum.
2-DG was cultured with the cells on day 0, 3, 5, 7 and maintained with subsequent feedings. T cells were cultured for 12 days in serum-free T cell medium and in medium with 5% Human AB Serum.

[4] = Day 10, non-naïve T cells, replicates

O=CC[C@@H](O)[C@H](O)[C@H](O)CO [2-DG, 2-Deoxy-D-Glucose]
effect on CD8+:CD4+ ratio in non-naïve T cells ([1]; 10 days): lesser effect | % CD4+ (Avg) ([1]; Day 10, non-naïve T cells): 81.08% | % CD8+ (Avg) ([1]; Day 10, non-naïve T cells): 12.23% | % Ratios (CD8+/CD4+) ([1]; Day 10, non-naïve T cells): 0.15 | % CD4+ [1, 4]: 80.85% and 81.31% | % CD8+ [1, 4]: 12.23% | Fold Increase compared to Baseline ([1]; Day 10 vs Day 0, non-naïve T cells): 0.35 | effect of 2-DG on growth of non-naïve T cells ([2]; 12 days): did not affect growth of either cell type; also recorded: modest effect | Cultured Non-Naïve T Cell Population Doublings ([2]; day 5): −0.24 | Cultured Non-Naïve T Cell Population Doublings ([2]; day 7): 1.25 | Cultured Non-Naïve T Cell Population Doublings ([2]; day 10): 3.37 | Cultured Non-Naïve T Cell Population Doublings ([2]; day 12): 4.64 | Cultured T Cell Population Doublings ([3]; 0.25 mM 2-DG at Day 0, culture day 0): 0 | Cultured T Cell Population Doublings ([3]; 0.25 mM 2-DG at Day 0, culture day 5): 1.71 | Cultured T Cell Population Doublings ([3]; 0.25 mM 2-DG at Day 0, culture day 7): 3.69 | Cultured T Cell Population Doublings ([3]; 0.25 mM 2-DG at Day 0, culture day 10): 6.53 | Cultured T Cell Population Doublings ([3]; 0.25 mM 2-DG at Day 0, culture day 12): 7.47 | Cultured T Cell Population Doublings ([3]; 0.25 mM 2-DG at Day 0, day 5): 1.71 | Cultured T Cell Population Doublings ([3]; 0.25 mM 2-DG at Day 0, day 7): 3.69 | Cultured T Cell Population Doublings ([3]; 0.25 mM 2-DG at Day 0, day 10): 6.53 | Cultured T Cell Population Doublings ([3]; 0.25 mM 2-DG at Day 0, day 12): 7.47 | Cultured T Cell Population Doublings ([3]; 0.25 mM 2-DG at Day 3, culture day 0): 0 | Cultured T Cell Population Doublings ([3]; 0.25 mM 2-DG at Day 3, culture day 5): 1.90 | Cultured T Cell Population Doublings ([3]; 0.25 mM 2-DG at Day 3, culture day 7): 3.36 | Cultured T Cell Population Doublings ([3]; 0.25 mM 2-DG at Day 3, culture day 10): 5.80 | Cultured T Cell Population Doublings ([3]; 0.25 mM 2-DG at Day 3, culture day 12): 6.34 | Cultured T Cell Population Doublings ([3]; 0.25 mM 2-DG at Day 3, day 5): 1.90 | Cultured T Cell Population Doublings ([3]; 0.25 mM 2-DG at Day 3, day 7): 3.36 | Cultured T Cell Population Doublings ([3]; 0.25 mM 2-DG at Day 3, day 10): 5.80 | Cultured T Cell Population Doublings ([3]; 0.25 mM 2-DG at Day 3, day 12): 6.34 | Cultured T Cell Population Doublings ([3]; 0.25 mM 2-DG at Day 5, culture day 0): 0 | Cultured T Cell Population Doublings ([3]; 0.25 mM 2-DG at Day 5, culture day 5): 1.75 | Cultured T Cell Population Doublings ([3]; 0.25 mM 2-DG at Day 5, culture day 7): 3.50 | Cultured T Cell Population Doublings ([3]; 0.25 mM 2-DG at Day 5, culture day 10): 5.82 | Cultured T Cell Population Doublings ([3]; 0.25 mM 2-DG at Day 5, culture day 12): 6.59 | Cultured T Cell Population Doublings ([3]; 0.25 mM 2-DG at Day 5, day 5): 1.75 | Cultured T Cell Population Doublings ([3]; 0.25 mM 2-DG at Day 5, day 7): 3.50 | Cultured T Cell Population Doublings ([3]; 0.25 mM 2-DG at Day 5, day 10): 5.82 | Cultured T Cell Population Doublings ([3]; 0.25 mM 2-DG at Day 5, day 12): 6.59 | Cultured T Cell Population Doublings ([3]; 0.25 mM 2-DG at Day 7, culture day 0): 0 | Cultured T Cell Population Doublings ([3]; 0.25 mM 2-DG at Day 7, culture day 5): 1.70 | Cultured T Cell Population Doublings ([3]; 0.25 mM 2-DG at Day 7, culture day 7): 3.48 | Cultured T Cell Population Doublings ([3]; 0.25 mM 2-DG at Day 7, culture day 10): 5.83 | Cultured T Cell Population Doublings ([3]; 0.25 mM 2-DG at Day 7, culture day 12): 6.44 | Cultured T Cell Population Doublings ([3]; 0.25 mM 2-DG at Day 7, day 5): 1.70 | Cultured T Cell Population Doublings ([3]; 0.25 mM 2-DG at Day 7, day 7): 3.48 | Cultured T Cell Population Doublings ([3]; 0.25 mM 2-DG at Day 7, day 10): 5.83 | Cultured T Cell Population Doublings ([3]; 0.25 mM 2-DG at Day 7, day 12): 6.44 | population doublings ([3]; 0.25 mM 2-DG at day 0, 3, 5, 7 and every feed): 6 to 7 population doublings | Cultured T Cell Population Doublings ([3]; 0.25 mM 2-DG at every feed, culture day 0): 0 | Cultured T Cell Population Doublings ([3]; 0.25 mM 2-DG at every feed, culture day 5): 1.61 | Cultured T Cell Population Doublings ([3]; 0.25 mM 2-DG at every feed, culture day 7): 3.80 | Cultured T Cell Population Doublings ([3]; 0.25 mM 2-DG at every feed, culture day 10): 6.03 | Cultured T Cell Population Doublings ([3]; 0.25 mM 2-DG at every feed, culture day 12): 6.82 | Cultured T Cell Population Doublings ([3]; 0.25 mM 2-DG at every feed, day 5): 1.61 | Cultured T Cell Population Doublings ([3]; 0.25 mM 2-DG at every feed, day 7): 3.80 | Cultured T Cell Population Doublings ([3]; 0.25 mM 2-DG at every feed, day 10): 6.03 | Cultured T Cell Population Doublings ([3]; 0.25 mM 2-DG at every feed, day 12): 6.82
